Source: patent publication US20240124409A1, “GUAIANOLIDE SESQUITERPENE LACTONE DERIVATIVES AND PHARMACEUTICAL USE THEREOF” (NANJING UNIVERSITY OF CHINESE MEDICINE, priority 2021, published 2024)

Experiments:
[1] = test system: mouse acute kidney injury models; experiment: Mouse acute kidney injury model (folic acid); format: in vivo, C57BL/6 mice; parameters: Havcr1 mRNA expression / Ngal mRNA expression / Tnf mRNA expression / Il1 mRNA expression / Il6 mRNA expression / α-Sma mRNA expression / Col1a1 mRNA expression / Tgfb1 mRNA expression: scale not given here; BUN (urea level in serum): unit not given here; conditions: for Scr (creatinine level in serum): in µmol/L (unit assumed); for Col1a1 mRNA expression / Havcr1 mRNA expression / Il1 mRNA expression / Il6 mRNA expression / Ngal mRNA expression / Tgfb1 mRNA expression / Tnf mRNA expression / α-Sma mRNA expression: kidney
Description: Acute kidney injury: The mice were randomly divided into 7 groups, one of which was randomly selected as the normal group, and the other 6 groups were the model group, the parent drug 1 (0.4 and 4 μmol/kg), the hydrochloride 22 (4 μmol/kg), and the fumarate 23 (0.4 and 4 μmol/kg) groups, respectively, with 6 mice in each group. In addition to the mice in the normal group, other mice were injected intraperitoneally with folic acid dissolved in 0.9% NaHCO3 solution (250 mg/kg) to establish mouse acute kidney injury models. 1 h before model establishment, the parent drug 1 (0.4 and 4 μmol/kg), the hydrochloride 22 (4 μmol/kg) and the fumarate 23 (0.4 and 4 μmol/kg) were administered intragastrically for 3 consecutive days. The mice in the normal group and model group were administered intragastrically the same volume of the solvent 0.5% CMC-Na.
1 h after the last administration, blood was collected from the venous plexus of fundus oculi, stood at room temperature for 2 h, and centrifuged at 3000 rpm for 20 min. The serum was aspirated, aliquoted, and frozen at −70° C. for subsequent use. After blood collection, the mice were sacrificed by cervical dislocation, and the abdominal cavity was opened. The kidneys were taken out, rinsed twice with pre-cooled PBS after the perirenal fats and capsules were peeled off, and then fixed with 4% paraformaldehyde for 24-48 h, embedded in paraffin and stained with HE. The remaining tissues were frozen at −70° C. for subsequent use.
μL serum was taken from each sample for the detection of creatinine and urea levels. Samples were added in accordance with the instructions of the kit strictly. After incubation at 37° C., the absorbance value was measured in a microplate reader, and the content levels of detection indicators in each group were calculated according to the standard curve.
The extraction of total RNA from animal tissues, cDNA synthesis and PCR amplification are as in above examples.

[2] = test system: mouse sepsis model; experiment: Mouse sepsis model (LPS), Q-PCR of inflammatory factors; format: in vivo, C57BL/6 mice; parameters: key: relative mRNA by 2^−ΔΔCt, normalized to Gapdh
From the text: The mice were randomly divided into 8 groups, one of which was randomly selected as the normal group, and the other 7 groups were the model group, the parent drug 1 (0.4 and 4 μmol/kg), the hydrochloride 22 (4 μmol/kg), the fumarate 23 (0.4 and 4 μmol/kg) and dexamethasone (Dex, 12 μmol/kg) groups, respectively, with 6 mice in each group. 5 days before model establishment, the parent drug 1 (0.4 and 4 μmol/kg), the hydrochloride 22 (4 μmol/kg), the fumarate 23 (0.4 and 4 μmol/kg) and Dex (12 μmol/kg) were administered intragastrically. The mice in the normal group and model group were administered intragastrically the same volume of the solvent 0.5% CMC-Na. LPS (10 mg/kg) was injected intraperitoneally 1 hour after administration on the last day to establish a mouse sepsis model.
At 6 h after intraperitoneal injection of LPS, the mice were sacrificed by cervical dislocation, and the abdominal cavity was opened. The lungs, livers and kidneys were taken out, and rinsed twice with pre-cooled PBS. The lung tissues, liver left lobe tissues and kidney tissues of the mice were cut, and fixed with 4% paraformaldehyde for 24-48 h. The remaining tissues were frozen at −70° Cfor subsequent use.
20 mg of kidney, lung and liver tissues were accurately weighed, rinsed with pre-cooled PBS solution, cut into small pieces by ophthalmic surgical scissors, and put into a glass homogenizer, into which was added 1 mL Trizol reagent for grinding to prepare tissue homogenate. Subsequently, the homogenate was transferred into a 1.5 mL EP tube without RNase and lysed on ice for 10 min. 200 μL chloroform was added, and the mixture was shaken violently, stood on ice for 3-5 min, and centrifuged at 12000 rpm and 4° C. for 15 min. The supernatant was aspirated carefully into a new 1.5 mL EP tube without RNase, into which was added the same volume of pre-cooled isopropanol, stood on an ice bath for 30 min, centrifuged at 12000 rpm and 4° C. for 10 min, and the supernatant was discarded. 75% ethanol-DEPC solution was added to wash the precipitate, and the total RNA was obtained by inversion and air drying on flat paper. Subsequently, 10 μL of DEPC treated water was added for dissolution. 1 μL of the total RNA solution was taken, and diluted to 100 times, the OD values of which at 260 nm and 280 nm were measured with a full wavelength microplate reader. If the ratio of OD260/OD280 is between 1.8 and 2.0, it is said that the extracted RNA has a high purity, i.e., it can be used in subsequent experiments.
Subsequent experiments were carried out with 20 μL of a reverse transcription reaction system according to the method described in the kit instructions:
Subsequent experiments were carried out with 20 μL of a reaction system according to the method described in the kit instructions:
The above reagents were added into a micro-reaction tube, sealed with a sealing membrane, and placed in a Q-PCR instrument. The parameters were set according to the following reaction conditions to carry out the amplification experiment. The reaction conditions were as follows:
The threshold cycle (Ct) value of each group was recorded. Calculating and analyzing were carried out by the 2^−ΔΔCt method (the expression level of the control gene Gapdh was set to 1 to correct the expression level of the target gene).

[3] = Table 12, title 'in lung' (text b281: liver), 0.4 μmol/kg i.g.
[4] = Table 12, title 'in lung' (text b281: liver), 4 μmol/kg i.g.

C=C1C(=O)O[C@@H]2[C@@H]3[C@]4(CC[C@@]3(C)O)C[C@]4(C)CC[C@@H]12 [Compound 1]
BUN (urea level in serum) ([1]; 0.4 μmol/kg i.g.): 31.46 | Scr (creatinine level in serum) ([1]; 0.4 μmol/kg i.g.): 108.48 | BUN (urea level in serum) ([1]; 4 μmol/kg i.g.): 21.33 | Scr (creatinine level in serum) ([1]; 4 μmol/kg i.g.): 71.95 | Col1a1 mRNA expression ([1]; 0.4 μmol/kg): 1.64 | Havcr1 mRNA expression ([1]; 0.4 μmol/kg): 175.10 | Il1 mRNA expression ([1]; 0.4 μmol/kg): 2.62 | Il6 mRNA expression ([1]; 0.4 μmol/kg): 8.02 | Ngal mRNA expression ([1]; 0.4 μmol/kg): 30.52 | Tgfb1 mRNA expression ([1]; 0.4 μmol/kg): 1.96 | Tnf mRNA expression ([1]; 0.4 μmol/kg): 2.89 | α-Sma mRNA expression ([1]; 0.4 μmol/kg): 1.82 | Col1a1 mRNA expression ([1]; 4 μmol/kg): 1.32 | Havcr1 mRNA expression ([1]; 4 μmol/kg): 99.99 | Il1 mRNA expression ([1]; 4 μmol/kg): 1.72 | Il6 mRNA expression ([1]; 4 μmol/kg): 3.98 | Ngal mRNA expression ([1]; 4 μmol/kg): 20.17 | Tgfb1 mRNA expression ([1]; 4 μmol/kg): 1.36 | Tnf mRNA expression ([1]; 4 μmol/kg): 2.76 | α-Sma mRNA expression ([1]; 4 μmol/kg): 1.42 | Il1 mRNA expression [2, 3]: 11.24 ± 2.98 | Il6 mRNA expression [2, 3]: 8.86 ± 3.11 | Tnf mRNA expression [2, 3]: 8.75 ± 2.25 | Il1 mRNA expression [2, 4]: 4.82 ± 0.58 | Il6 mRNA expression [2, 4]: 5.20 ± 0.87 | Tnf mRNA expression [2, 4]: 7.09 ± 0.99 | Il1 mRNA expression ([2]; kidney, 0.4 μmol/kg i.g.): 7.01 ± 0.33 | Il6 mRNA expression ([2]; kidney, 0.4 μmol/kg i.g.): 7.55 ± 2.08 | Tnf mRNA expression ([2]; kidney, 0.4 μmol/kg i.g.): 7.17 ± 1.22 | Il1 mRNA expression ([2]; kidney, 4 μmol/kg i.g.): 3.05 ± 0.58 | Il6 mRNA expression ([2]; kidney, 4 μmol/kg i.g.): 3.11 ± 0.29 | Tnf mRNA expression ([2]; kidney, 4 μmol/kg i.g.): 6.59 ± 0.18 | Il1 mRNA expression ([2]; lung, 0.4 μmol/kg i.g.): 15.29 ± 0.88 | Il6 mRNA expression ([2]; lung, 0.4 μmol/kg i.g.): 19.17 ± 0.51 | Tnf mRNA expression ([2]; lung, 0.4 μmol/kg i.g.): 8.58 ± 0.85 | Il1 mRNA expression ([2]; lung, 4 μmol/kg i.g.): 7.89 ± 1.44 | Il6 mRNA expression ([2]; lung, 4 μmol/kg i.g.): 11.67 ± 1.84 | Tnf mRNA expression ([2]; lung, 4 μmol/kg i.g.): 7.99 ± 1.36

CN(C)C[C@@H]1C(=O)O[C@H]2[C@H]1CC[C@@]1(C)C[C@]13CC[C@@](C)(O)[C@H]23 [Compound 22]
BUN (urea level in serum) ([1]; 4 μmol/kg i.g.): 16.74 | Scr (creatinine level in serum) ([1]; 4 μmol/kg i.g.): 64.94 | Col1a1 mRNA expression ([1]; 4 μmol/kg): 1.18 | Havcr1 mRNA expression ([1]; 4 μmol/kg): 62.86 | Il1 mRNA expression ([1]; 4 μmol/kg): 1.06 | Il6 mRNA expression ([1]; 4 μmol/kg): 1.55 | Ngal mRNA expression ([1]; 4 μmol/kg): 13.05 | Tgfb1 mRNA expression ([1]; 4 μmol/kg): 0.98 | Tnf mRNA expression ([1]; 4 μmol/kg): 2.31 | α-Sma mRNA expression ([1]; 4 μmol/kg): 1.11 | Il1 mRNA expression [2, 4]: 3.07 ± 0.29 | Il6 mRNA expression [2, 4]: 3.93 ± 0.90 | Tnf mRNA expression [2, 4]: 5.71 ± 0.61 | Il1 mRNA expression ([2]; kidney, 4 μmol/kg i.g.): 2.76 ± 0.59 | Il6 mRNA expression ([2]; kidney, 4 μmol/kg i.g.): 2.43 ± 0.64 | Tnf mRNA expression ([2]; kidney, 4 μmol/kg i.g.): 6.20 ± 0.60 | Il1 mRNA expression ([2]; lung, 4 μmol/kg i.g.): 5.22 ± 0.90 | Il6 mRNA expression ([2]; lung, 4 μmol/kg i.g.): 7.16 ± 0.71 | Tnf mRNA expression ([2]; lung, 4 μmol/kg i.g.): 6.52 ± 0.29

CN(C)C[C@@H]1C(=O)O[C@H]2[C@H]1CC[C@@]1(C)C[C@]13CC[C@@](C)(O)[C@H]23 [Compound 23]
BUN (urea level in serum) ([1]; 0.4 μmol/kg i.g.): 30.08 | Scr (creatinine level in serum) ([1]; 0.4 μmol/kg i.g.): 90.69 | BUN (urea level in serum) ([1]; 4 μmol/kg i.g.): 18.95 | Scr (creatinine level in serum) ([1]; 4 μmol/kg i.g.): 50.39 | Col1a1 mRNA expression ([1]; 0.4 μmol/kg): 1.58 | Havcr1 mRNA expression ([1]; 0.4 μmol/kg): 170.08 | Il1 mRNA expression ([1]; 0.4 μmol/kg): 2.07 | Il6 mRNA expression ([1]; 0.4 μmol/kg): 6.47 | Ngal mRNA expression ([1]; 0.4 μmol/kg): 25.75 | Tgfb1 mRNA expression ([1]; 0.4 μmol/kg): 1.64 | Tnf mRNA expression ([1]; 0.4 μmol/kg): 2.60 | α-Sma mRNA expression ([1]; 0.4 μmol/kg): 1.80 | Col1a1 mRNA expression ([1]; 4 μmol/kg): 1.20 | Havcr1 mRNA expression ([1]; 4 μmol/kg): 83.11 | Il1 mRNA expression ([1]; 4 μmol/kg): 1.45 | Il6 mRNA expression ([1]; 4 μmol/kg): 5.61 | Ngal mRNA expression ([1]; 4 μmol/kg): 13.08 | Tgfb1 mRNA expression ([1]; 4 μmol/kg): 1.09 | Tnf mRNA expression ([1]; 4 μmol/kg): 2.42 | α-Sma mRNA expression ([1]; 4 μmol/kg): 0.90 | Il1 mRNA expression [2, 3]: 10.46 ± 1.55 | Il6 mRNA expression [2, 3]: 9.13 ± 0.80 | Tnf mRNA expression [2, 3]: 7.63 ± 1.97 | Il1 mRNA expression [2, 4]: 4.36 ± 0.94 | Il6 mRNA expression [2, 4]: 4.97 ± 0.77 | Tnf mRNA expression [2, 4]: 7.10 ± 1.09 | Il1 mRNA expression ([2]; kidney, 0.4 μmol/kg i.g.): 6.56 ± 0.88 | Il6 mRNA expression ([2]; kidney, 0.4 μmol/kg i.g.): 6.05 ± 0.19 | Tnf mRNA expression ([2]; kidney, 0.4 μmol/kg i.g.): 6.70 ± 0.80 | Il1 mRNA expression ([2]; kidney, 4 μmol/kg i.g.): 2.82 ± 0.33 | Il6 mRNA expression ([2]; kidney, 4 μmol/kg i.g.): 2.70 ± 0.52 | Tnf mRNA expression ([2]; kidney, 4 μmol/kg i.g.): 6.04 ± 1.62 | Il1 mRNA expression ([2]; lung, 0.4 μmol/kg i.g.): 13.30 ± 0.88 | Il6 mRNA expression ([2]; lung, 0.4 μmol/kg i.g.): 18.40 ± 3.16 | Tnf mRNA expression ([2]; lung, 0.4 μmol/kg i.g.): 8.79 ± 1.18 | Il1 mRNA expression ([2]; lung, 4 μmol/kg i.g.): 6.79 ± 0.72 | Il6 mRNA expression ([2]; lung, 4 μmol/kg i.g.): 9.10 ± 1.20 | Tnf mRNA expression ([2]; lung, 4 μmol/kg i.g.): 8.67 ± 1.51
